Results: ChEMBL document CHEMBL1151370, “Marine animal biosynthetic constituents for cancer chemotherapy” (1981)

System: P388
Experiment: Antineoplastic activity against mouse P388 cells
Assay type: functional

CC(C)C[C@@H]1NC(=O)[C@@H]2CCCN2C(=O)[C@H](C(C)C)NC(=O)c2csc(n2)CNC(=O)c2csc(n2)[C@H](CCC(N)=O)NC1=O [DOLASTATIN 3]
ED50: 2.7 ×10⁻⁷ ug/ml
